From patent US8017612B2, “Piperazine compound and use thereof as a HCV polymerase inhibitor” (priority 2006, dated 2011) come the findings set out here.

SMILES strings stand for the structures. Some results are limits rather than exact numbers.

Assay [1] concerns the target T1, HCV polymerase (NS5B) type 1b (Hepatitis C virus genotype 1b, UniProt P26663).
T1 construct: a region encoding NS5B (J Virol 1991 March, 65(3), 1105-13, 544 amino acids after deletion of 47 amino acids on the C-terminal); 6xHis (C); made in house; host or cells: Escherichia coli
The assay is described as follows: Assay of enzyme (HCV polymerase) inhibitory activity, type 1b enzyme. It counts as biochemical, HCV BK strain (type 1b). The settings on record: HCV polymerase inhibitory activity (IC50), 1b, type 1b enzyme 0.5 μg/ml, 25° C., 60 min. The method, boiled down:
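Polymerase activity was followed as radiolabelled UTP incorporation by E. coli-expressed, His-tagged NS5B of HCV type 1b lacking its last 47 residues. Conditions: 2 μM UTP, 50 μM other NTPs, Mg2+ buffer at pH 7.5, 25 °C for 60 min. Inhibition relative to compound-free reactions gave IC50.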

For assay [2], the target named is T2, HCV polymerase (NS5B) type 1a (Hepatitis C virus genotype 1a, UniProt P26664).
T2 construct: made in house; host or cells: Escherichia coli (by the 'similar method' of the 1b enzyme)
Nature of the assay: Assay of enzyme (HCV polymerase) inhibitory activity, type 1a enzyme. It counts as biochemical, HCV type 1a (cloned from the blood of patients). Particulars: HCV polymerase inhibitory activity (IC50), 1a, type 1a enzyme 1.5 μg/ml, 25° C., 60 min. The method, boiled down:
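IC50 values derive from radioactivity of newly synthesized RNA with versus without test compound. The enzyme was C-terminally truncated type 1a NS5B, 1.5 μg/ml, run 60 min at 25° C with 3H-UTP-labelled nucleotides.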

Turning to `CC(=O)N1CCN(S(=O)(=O)c2ccc(C(C)C)cc2)[C@@H](C(=O)NCCCN2CCCC2)C1` [Example 405, (R)-4-acetyl-1-(4-isopropyl-benzenesulfonyl)-piperazine-2-carboxylic acid (3-pyrrolidin-1-yl-propyl)-amide], the IC50 in assay [1] and in assay [2] was more than 1 µM each time.

For the molecule `CCCc1ccc(CNC(=O)[C@H]2CN(c3nc(C)c(C(N)=O)s3)CCN2S(=O)(=O)c2ccc(OC(F)(F)F)cc2)cc1` [Example 406, (R)-4-(5-carbamoyl-4-methyl-thiazol-2-yl)-1-(4-trifluoromethoxy-benzenesulfonyl)-piperazine-2-carboxylic acid 4-propyl-benzylamide], the IC50 in assay [1] and in assay [2] was less than 0.1 µM each time.

`CN(C)c1ccc(CNC(=O)[C@H]2CN(c3cnc(C(=O)O)cn3)CCN2S(=O)(=O)c2ccc(OC(F)(F)F)cc2)cn1` [Example 407, (R)-3-[(6-dimethylamino-pyridin-3-ylmethyl)-carbamoyl]-4-(4-trifluoromethoxy-benzenesulfonyl)-3,4,5,6-tetrahydro-2H-[1,2′]bipyrazinyl-5′-carboxylic acid]: the IC50 – broadly, the point on the concentration scale where inhibition reaches its midpoint – in assay [1] is less than 0.1 µM; in assay [2], 0.1 to 1 µM.

As for `CC(C)c1ccc(CNC(=O)[C@H]2CN(c3cnc(C(=O)O)cn3)CCN2S(=O)(=O)c2ccc(OC(F)(F)F)cc2)cn1` [Example 408, (R)-3-[(6-isopropyl-pyridin-3-ylmethyl)-carbamoyl]-4-(4-trifluoromethoxy-benzenesulfonyl)-3,4,5,6-tetrahydro-2H-[1,2′]bipyrazinyl-5′-carboxylic acid], the IC50 in assay [1] and in assay [2] was less than 0.1 µM each time.

On to `O=C(NCc1ccc(OC(F)(F)F)cc1)[C@H]1CN(C(=O)Cc2ccncc2)CCN1S(=O)(=O)c1ccc(OC(F)(F)F)cc1` [Example 409, (R)-4-(2-pyridin-4-yl-acetyl)-1-(4-trifluoromethoxy-benzenesulfonyl)-piperazine-2-carboxylic acid 4-trifluoromethoxy-benzylamide], for which the IC50 in assay [1] and in assay [2] was 0.1 to 1 µM throughout.

Consider `CN(C)c1ccc(CNC(=O)[C@H]2CN(C(=O)Cc3ccncc3)CCN2S(=O)(=O)c2ccc(OC(F)(F)F)cc2)cc1` [Example 410, (R)-4-(2-pyridin-4-yl-acetyl)-1-(4-trifluoromethoxy-benzenesulfonyl)-piperazine-2-carboxylic acid 4-dimethylamino-benzylamide], for which the IC50 in assay [1] was 0.1 to 1 µM; in assay [2] it was less than 0.1 µM.

As to `CCCc1ccc(CNC(=O)[C@H]2CN(C(=O)Cc3ccncc3)CCN2S(=O)(=O)c2ccc(OC(F)(F)F)cc2)cc1` [Example 411, (R)-4-(2-pyridin-4-yl-acetyl)-1-(4-trifluoromethoxy-benzenesulfonyl)-piperazine-2-carboxylic acid 4-propyl-benzylamide], the IC50 in assay [1] and in assay [2] was less than 0.1 µM in each case.

`O=C(NCc1ccc(C2CC2)cc1)[C@H]1CN(C(=O)Cc2ccncc2)CCN1S(=O)(=O)c1ccc(OC(F)(F)F)cc1` [Example 412, (R)-4-(2-pyridin-4-yl-acetyl)-1-(4-trifluoromethoxy-benzenesulfonyl)-piperazine-2-carboxylic acid 4-cyclopropyl-benzylamide]: the results for the IC50 in assay [1] and in assay [2] were 0.1 to 1 µM and less than 0.1 µM, respectively.

Regarding `CCCc1ccc(CNC(=O)[C@H]2CN(c3ccc(C(=O)O)cc3)CCN2S(=O)(=O)c2ccc(OC(F)(F)F)cc2)cc1` [Example 413, 4-[(R)-3-(4-propyl-benzylcarbamoyl)-4-(4-trifluoromethoxy-benzenesulfonyl)-piperazin-1-yl]-benzoic acid], the IC50 was less than 0.1 µM in assay [1] and 0.1 to 1 µM in assay [2].

On to `CCCc1ccc(CNC(=O)[C@H]2CN(c3nc(C)c(C(=O)O)s3)CCN2S(=O)(=O)c2ccc(CC)cc2)cc1` [Example 414, 2-[(R)-4-(4-ethyl-benzenesulfonyl)-3-(4-propyl-benzylcarbamoyl)-piperazin-1-yl]-4-methyl-thiazole-5-carboxylic acid], for which the IC50 in assay [1] and in assay [2] was less than 0.1 µM each time.

As to `CCCc1ccc(CNC(=O)[C@H]2CN(c3cnc(C(=O)O)cn3)CCN2S(=O)(=O)c2ccc(CC)cc2)cc1` [Example 415, (R)-4-(4-ethyl-benzenesulfonyl)-3-(4-propyl-benzylcarbamoyl)-3,4,5,6-tetrahydro-2H-[1,2′]bipyrazinyl-5′-carboxylic acid], the IC50 in assay [1] and in assay [2] was less than 0.1 µM throughout.

With `Cc1nc(N2CCN(S(=O)(=O)c3ccc(OC(F)(F)F)cc3)[C@@H](C(=O)NCc3ccc(N4CCCC4)cc3)C2)sc1C(=O)O` [Example 416, 4-methyl-2-[(R)-3-(4-pyrrolidin-1-yl-benzylcarbamoyl)-4-(4-trifluoromethoxy-benzenesulfonyl)-piperazin-1-yl]-thiazole-5-carboxylic acid], the IC50 is less than 0.1 µM in assay [1] and 0.1 to 1 µM in assay [2].

As for `CCCc1ccc(CNC(=O)[C@H]2CN(c3ccc(C(=O)O)nn3)CCN2S(=O)(=O)c2ccc(OC(F)(F)F)cc2)cc1` [Example 417, 6-[(R)-3-(4-propyl-benzylcarbamoyl)-4-(4-trifluoromethoxy-benzenesulfonyl)-piperazin-1-yl]-pyridazine-3-carboxylic acid], the IC50 in assay [1] and in assay [2] was less than 0.1 µM in each case.

With `Cc1nc(N2CCN(S(=O)(=O)c3ccc(OC(F)(F)F)cc3)[C@@H](C(=O)NCCc3ccccc3)C2)sc1C(=O)O` [Example 418, 4-methyl-2-[(R)-3-phenethylcarbamoyl-4-(4-trifluoromethoxy-benzenesulfonyl)-piperazin-1-yl]-thiazole-5-carboxylic acid], the IC50 in assay [1] and in assay [2] was more than 1 µM in each case.

On to `CC(=O)N1CCN(S(=O)(=O)c2ccc(Br)cc2F)[C@@H](C(=O)NCc2ccc(C(C)C)cc2)C1` [Example 419, (R)-4-acetyl-1-(4-bromo-2-fluoro-benzenesulfonyl)-piperazine-2-carboxylic acid 4-isopropyl-benzylamide], for which the IC50 in assay [1] and in assay [2] was 0.1 to 1 µM throughout.

For `COC(=O)c1nc(Cl)c(N2CCN(S(=O)(=O)c3ccc(C(F)(F)F)cc3)[C@@H](C(=O)NCc3ccc(C(C)C)cc3)C2)nc1N` [Example 420, (R)-6′-amino-3′-chloro-3-(4-isopropyl-benzylcarbamoyl)-4-(4-trifluoromethyl-benzenesulfonyl)-3,4,5,6-tetrahydro-2H-[1,2′]bipyrazinyl-5′-carboxylic acid methyl ester], the half-inhibitory concentration (IC50) in assay [1] and in assay [2] was more than 1 µM in each case.

As for `COC(=O)c1nc(Cl)c(N2CCN(S(=O)(=O)c3ccc(C(F)(F)F)cc3)[C@@H](C(=O)NCc3ccc(C(C)C)cc3)C2)nc1Br` [Example 421, (R)-6′-bromo-3′-chloro-3-(4-isopropyl-benzylcarbamoyl)-4-(4-trifluoromethyl-benzenesulfonyl)-3,4,5,6-tetrahydro-2H-[1,2′]bipyrazinyl-5′-carboxylic acid methyl ester], the IC50 in assay [1] and in assay [2] was more than 1 µM in each case.

In the case of `Cc1nc(N2CCN(S(=O)(=O)c3ccc(C(F)(F)F)cc3)[C@@H](C(=O)NCc3ccc(C(C)C)cc3)C2)c(C)nc1C(=O)O` [Example 422, (R)-3-(4-isopropyl-benzylcarbamoyl)-3′,6′-dimethyl-4-(4-trifluoromethyl-benzenesulfonyl)-3,4,5,6-tetrahydro-2H-[1,2′]bipyrazinyl-5′-carboxylic acid], the IC50 in assay [1] and in assay [2] was more than 1 µM throughout.

Regarding `COC(=O)c1ncc(N2CCN(S(=O)(=O)c3ccc(C(F)(F)F)cc3)[C@@H](C(=O)NCc3ccc(C(C)C)cc3)C2)nc1N` [Example 423, (R)-6′-amino-3-(4-isopropyl-benzylcarbamoyl)-4-(4-trifluoromethyl-benzenesulfonyl)-3,4,5,6-tetrahydro-2H-[1,2′]bipyrazinyl-5′-carboxylic acid methyl ester], the IC50 in assay [1] and in assay [2] was less than 0.1 µM in each case.

`CCN(C)c1ccc(CNC(=O)[C@H]2CN(c3nc(C)c(C(=O)O)s3)CCN2S(=O)(=O)c2ccc(OC(F)(F)F)cc2)cc1` [Example 424, 2-[(R)-3-[4-(ethyl-methyl-amino)-benzylcarbamoyl]-4-(4-trifluoromethoxy-benzenesulfonyl)-piperazin-1-yl]-4-methyl-thiazole-5-carboxylic acid]: the IC50 in assay [1] and in assay [2] was less than 0.1 µM each time.

For `CCN(CC)c1ccc(CNC(=O)[C@H]2CN(c3nc(C)c(C(=O)O)s3)CCN2S(=O)(=O)c2ccc(OC(F)(F)F)cc2)cc1` [Example 425, 2-[(R)-3-(4-diethylamino-benzylcarbamoyl)-4-(4-trifluoromethoxy-benzenesulfonyl)-piperazin-1-yl]-4-methyl-thiazole-5-carboxylic acid], the IC50 in assay [1] and in assay [2] was less than 0.1 µM each time.

As for `CC(C)c1ccc(CNC(=O)[C@H]2CN(c3cc(C(=O)O)[nH]n3)CCN2S(=O)(=O)c2ccc(C(F)(F)F)cc2)cc1` [Example 426, 5-[(R)-3-(4-isopropyl-benzylcarbamoyl)-4-(4-trifluoromethyl-benzenesulfonyl)-piperazin-1-yl]-2H-pyrazole-3-carboxylic acid], the IC50 in assay [1] was 0.1 to 1 µM; in assay [2], more than 1 µM.
